Laboratory results from patent publication US20180064738A1, “METHOD OF TREATING INFECTIONS USING SILOXANE DERIVATIVES” (priority 2014, published 2018).

What was measured:
[1] = tested on: human head and neck cancer cell line (HTB41/-43); test: Intratumoral injection of head and neck cancer tumors in nude mice; assay type: in vivo; conditions: tumors in the abdomen injected, over 10 days; K-21 at 5% by weight
Procedure: Nude mice were injected with human head and neck cancer cell line (HTB41/-43). […] The size of the sham injected tumors grew most rapidly over 10 days.

[2] = tested on: shaved skin of mice; test: Topical irritation and DMBA skin tumor study in mice; conditions: Group II
Procedure: K-21 was dissolved in acetone to enhance its ability to wet the shaved skin on the backs of experimental mice. Mice in the positive control group were treated with a topical chemical carcinogenic agent, dimethybena(α)anthracene (DMBA), dissolved in acetone.
Thirty adult C57/BL6 mice were randomly divided into three groups of ten animals each to evaluate the topical irritation and potential anti-inflammatory properties of K-21. The hair on the back of all mice were shaved off with electric clippers.
Group 1 animals received topical application of K-21 (100 μg/100 μL) in acetone twice a week for two weeks (days 3, 6, 9, and 12) over the shaved area. These animals received no other treatment. Group II mice received a topical single dose of DMBA (100 μg/100 μL) in acetone over the shaved skin on the animals back on day 7. Group III animals received the same treatment as Group II mice on day 7 plus they were treated with topical K-21, twice a week before (days 3, 6) and one week after (days 9 and 12) a single DMBA application on day 7.
All animals were weighed daily, before and during the study to compare the weight gains of animals in all three groups. The behavior (eating, drinking, etc.) was monitored on a daily basis to determine if there was any gross skin irritation or initiation of tumors. […]

[3] = tested on: IL-1; test: Flow cytometry of skin cells for the inflammatory cytokine IL-1; assay type: in vivo, C57/BL6 mice; conditions: Group II, DMBA alone
Procedure: These animals received no other treatment.
Flow cytometry analyses: The skin and some associated soft tissues on the backs of all mice were excised. Representative portions of the skin and dermis were prepared for flow cytometry analysis by being divided into single cell suspensins using a 100 μm cell strainer followed by centrifugation (1500 rpm, 10 mm). Analysis of cells for detection of the inflammatory cytokine IL-1 was performed by fixing, permeabilizing, and staining of cells and running flow cyctopmetry using a FACS Calibur BD Flow Cytometer.

Row | Structure (SMILES) | tumor growth [1] | tumor formation ([2]; single topical dose of DMBA on day 7, sacrificed day 14) | tumor diameter ([2]; single topical dose of DMBA, day 14) | IL-1 positive cells of the total number of cells [3] [%]
1 | N.N.[Cl][Pt][Cl] [Cisplatin] | grew the least |  |  | 
2 | Cc1c2ccccc2c(C)c2c1ccc1ccccc12 [DMBA, dimethybena(α)anthracene] |  | Tumors formed in all ten | about 0.5 cm | 6
